Test systems include HCT-116; CAKI-1; HOP-62; SNB-75; NCI-H226; IGROV-1; CCRF-CEM; K562; SK-MEL-2; PC-3; MCF7; OVCAR-8; BT-549; SN12C; RXF 393; OVCAR-3; UACC-62; SF-268; MOLT-4; LOX IMVI.
Experiment in all cases: growth of human tumour cells (NCI), 48 h

Molecules are shown by their SMILES.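 Exposure lasted 48 hours, with cells grown in 96-well plates and compounds tested at five concentrations. GI50 = concentration required for 50% inhibition of growth.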 Activity calls are given as the source filed them. No stated cut-off is given here; in the data, active = GI50 up to about 1.1 µM and inactive = higher. Bounds are passed on as bounds.

With `O=C(N/N=C\c1ccc([N+](=O)[O-])cc1)c1ccccc1Nc1ccccc1C(=O)N/N=C/c1ccc([N+](=O)[O-])cc1`, the GI50 with HCT-116, in the assay on CAKI-1, in the assay on HOP-62, with SNB-75, in the assay with NCI-H226 and in the assay with IGROV-1 was > 100 µM (inactive) in each case. Moreover, the GI50 in the assay on CCRF-CEM was 85.7 µM (inactive); in the assay on K562 it was > 100 µM (inactive); in the assay with SK-MEL-2, > 100 µM (inactive); in the assay with PC-3, > 100 µM (inactive); in the assay with MCF7, > 100 µM (inactive); in the assay on OVCAR-8 it was > 100 µM (inactive). Also, the GI50 in the assay with BT-549, with SN12C, with RXF 393, in the assay on OVCAR-3, in the assay with UACC-62 and in the assay with SF-268 was > 100 µM (inactive) throughout. Also, the GI50 in the assay with MOLT-4 was 66.2 µM (inactive).

As to `C=C(Br)C(Cl)(CBr)CCC(Br)C(C)(C)Cl` (centres undefined), the GI50 in the assay on HCT-116, in the assay on CAKI-1, in the assay on HOP-62, in the assay with SNB-75, with NCI-H226 and in the assay with IGROV-1 was > 10 µM (inactive) throughout. The GI50 was > 10 µM (inactive) in the assay with CCRF-CEM; > 10 µM (inactive) with K562; > 10 µM (inactive) in the assay with SK-MEL-2; > 10 µM (inactive) in the assay on PC-3; 7.83 µM (inactive) in the assay with MCF7; > 10 µM (inactive) in the assay with OVCAR-8. Moreover, the GI50 in the assay on BT-549, in the assay on SN12C, in the assay with RXF 393, in the assay on OVCAR-3, in the assay on UACC-62 and with SF-268 was > 10 µM (inactive) each time. Further, the GI50 with MOLT-4 was > 10 µM (inactive).

With `COc1c(C)c(C/C=C(\C)CCCCO)c(OC)c2ccccc12`, the GI50 was 28.9 µM (inactive) with HCT-116; 17.9 µM (inactive) with CAKI-1; 33 µM (inactive) in the assay on SNB-75; 65.8 µM (inactive) in the assay with IGROV-1; 28.8 µM (inactive) in the assay on CCRF-CEM; 18.8 µM (inactive) in the assay with LOX IMVI. Also, the GI50 with K562 was 29.4 µM (inactive); with SK-MEL-2, 83.6 µM (inactive); in the assay on PC-3, 34.4 µM (inactive); in the assay on MCF7 it was 38.5 µM (inactive); with OVCAR-8, 33.1 µM (inactive); in the assay with BT-549, 46.7 µM (inactive). Also, the GI50 with SN12C was 23.4 µM (inactive); with RXF 393, 79.6 µM (inactive); in the assay on OVCAR-3 it was 62.4 µM (inactive); in the assay on UACC-62, 49.2 µM (inactive); with SF-268, 44 µM (inactive); in the assay on MOLT-4, 21.2 µM (inactive).

Consider `COc1ccc(/[N+]([O-])=C/c2ccccc2OC(=S)S)cc1`, for which the GI50 was 25.5 µM (inactive) with HCT-116; 33.7 µM (inactive) in the assay with CAKI-1; 62.4 µM (inactive) in the assay on SNB-75; 30.8 µM (inactive) in the assay on NCI-H226; 27.6 µM (inactive) with IGROV-1; 20.1 µM (inactive) in the assay on LOX IMVI. For the same compound, the GI50 with K562 is 37.4 µM (inactive); in the assay with SK-MEL-2 it was 28.2 µM (inactive); in the assay on PC-3, 39.3 µM (inactive); in the assay with MCF7 it was 33.6 µM (inactive); in the assay with OVCAR-8, 18.7 µM (inactive); with BT-549, 23.2 µM (inactive). The GI50 is 24.5 µM (inactive) with SN12C; 52 µM (inactive) with RXF 393; 28.4 µM (inactive) in the assay with OVCAR-3; 32.6 µM (inactive) in the assay with UACC-62; 34.8 µM (inactive) in the assay with SF-268; 37.7 µM (inactive) in the assay with MOLT-4.

On to `FC(F)(F)c1cccnc1Sc1nc2ccccc2s1`, for which the GI50 was > 100 µM (inactive) with HCT-116; > 100 µM (inactive) with CAKI-1; 57.8 µM (inactive) in the assay on HOP-62; 59.6 µM (inactive) with SNB-75; 2.67 µM (inactive) in the assay on NCI-H226; 42.4 µM (inactive) in the assay with IGROV-1. In addition, the GI50 in the assay on CCRF-CEM was > 100 µM (inactive); with K562, > 100 µM (inactive); in the assay with SK-MEL-2, 20.7 µM (inactive); in the assay with PC-3, > 100 µM (inactive); in the assay on MCF7, > 100 µM (inactive); with OVCAR-8 it was > 100 µM (inactive). For the same compound, the GI50 in the assay on BT-549 is > 100 µM (inactive); in the assay with SN12C, > 100 µM (inactive); with RXF 393, > 100 µM (inactive); with OVCAR-3, 11.3 µM (inactive); in the assay with UACC-62 it was > 100 µM (inactive); in the assay on SF-268, > 100 µM (inactive). The GI50 in the assay on MOLT-4 was 52.1 µM (inactive).

Consider `CCN(CC)CCC(=O)OC1C(C)=CC(C)C(=O)CC(C(C)CC2CCC(O)C(OC)C2)OC(=O)C2CCCCN2C(=O)C(=O)[C@@]2(O)OC(CCC2C)CC(OC)\C(C)=C/C=C/C=C/C(C)CC(C)C(=O)C1OC` (some centres undefined), for which the GI50 is 5.89 µM (inactive) in the assay on HCT-116; 0.975 µM (active) in the assay on CAKI-1; < 0.01 µM (active) in the assay on HOP-62; < 0.01 µM (active) in the assay on SNB-75; 12.9 µM (inactive) with NCI-H226; < 0.01 µM (active) in the assay with IGROV-1. The GI50 in the assay on LOX IMVI is < 0.01 µM (active); with K562, < 0.0183 µM (active); with PC-3 it was < 0.01 µM (active); in the assay with MCF7 it was < 0.01 µM (active); in the assay with BT-549, < 0.01 µM (active); in the assay with SN12C, 6.37 µM (inactive). The GI50 was < 0.01 µM (active) in the assay on RXF 393, 11.2 µM (inactive) in the assay with OVCAR-3 and 1.07 µM (active) in the assay on SF-268.

Consider `Cc1nc2c(o1)C(=O)c1ccccc1/C2=N/c1ccccn1`, for which the GI50 in the assay on HCT-116 is 20.4 µM (inactive); with CAKI-1, 25.8 µM (inactive); with HOP-62, 18.4 µM (inactive); with SNB-75, 4.57 µM (inactive); with IGROV-1 it was 22.6 µM (inactive); with CCRF-CEM, 18.5 µM (inactive). Further, the GI50 with LOX IMVI was 19.1 µM (inactive); in the assay on K562, 29.8 µM (inactive); in the assay with SK-MEL-2, 18.8 µM (inactive); in the assay on PC-3, 30.8 µM (inactive); in the assay on MCF7 it was 17.7 µM (inactive); with OVCAR-8, 15.4 µM (inactive). The GI50 is 18.3 µM (inactive) in the assay with BT-549; 24.9 µM (inactive) in the assay with SN12C; > 100 µM (inactive) in the assay on RXF 393; 4.66 µM (inactive) in the assay on OVCAR-3; 20 µM (inactive) with UACC-62; 24.2 µM (inactive) in the assay with SF-268. Further, the GI50 with MOLT-4 was 17.7 µM (inactive).

`O=C1c2ccccc2C2=Nc3ccncc3CN12`: the GI50 with HCT-116 was > 100 µM (inactive); with CAKI-1, > 100 µM (inactive); with HOP-62 it was > 100 µM (inactive); in the assay with SNB-75 it was 74.5 µM (inactive); in the assay on NCI-H226, > 100 µM (inactive); in the assay on IGROV-1, > 100 µM (inactive). Further, the GI50 in the assay with CCRF-CEM, in the assay with K562, in the assay with SK-MEL-2, in the assay with PC-3, with MCF7 and with OVCAR-8 was > 100 µM (inactive) each time. Also, the GI50 with BT-549, with SN12C, in the assay on RXF 393, with OVCAR-3, in the assay with UACC-62 and in the assay on SF-268 was > 100 µM (inactive) throughout. Moreover, the GI50 in the assay on MOLT-4 is > 100 µM (inactive).

As to `Cc1ccc(S(=O)(=O)NC(=O)NC(CO)C(=O)O)cc1` (centres undefined), the GI50 in the assay with HCT-116, in the assay with HOP-62, in the assay with SNB-75, in the assay on IGROV-1, with CCRF-CEM and with LOX IMVI was > 100 µM (inactive) in each case. The GI50 with K562, in the assay on SK-MEL-2, in the assay with PC-3, in the assay on MCF7, with OVCAR-8 and in the assay on BT-549 was > 100 µM (inactive) each time. Besides, the GI50 in the assay with SN12C, in the assay on RXF 393, in the assay with UACC-62, in the assay on SF-268 and with MOLT-4 was > 100 µM (inactive) throughout.

On to `O=C(CC1(O)CCCCC1)OC1CCCC1`, for which the GI50 in the assay on HCT-116, in the assay with CAKI-1, in the assay with HOP-62, with SNB-75, in the assay with NCI-H226 and in the assay on IGROV-1 was > 100 µM (inactive) throughout. Moreover, the GI50 with LOX IMVI, with SK-MEL-2, with PC-3, in the assay on MCF7, in the assay on OVCAR-8 and in the assay on BT-549 was > 100 µM (inactive) in each case. Moreover, the GI50 with SN12C, in the assay on RXF 393, in the assay with OVCAR-3, with UACC-62 and in the assay on SF-268 was > 100 µM (inactive) in each case.

As to `COC(=O)n1c(C)c(C=O)c2ccc(OC)cc21`, the GI50 with HCT-116 is 34.8 µM (inactive); with CAKI-1 it was 38.9 µM (inactive); in the assay with HOP-62, 16.4 µM (inactive); with SNB-75 it was 31.3 µM (inactive); in the assay on IGROV-1 it was 38.6 µM (inactive); in the assay on CCRF-CEM, 32.4 µM (inactive). Also, the GI50 in the assay on LOX IMVI is 30.1 µM (inactive); in the assay with K562 it was 38 µM (inactive); in the assay on SK-MEL-2 it was 33.2 µM (inactive); in the assay with PC-3, 31.9 µM (inactive); in the assay with MCF7 it was 37.2 µM (inactive); in the assay with OVCAR-8, 81.7 µM (inactive). For the same compound, the GI50 is 26.7 µM (inactive) with BT-549; 55.6 µM (inactive) in the assay on SN12C; 30.6 µM (inactive) in the assay with RXF 393; 59.6 µM (inactive) in the assay with OVCAR-3; 21 µM (inactive) in the assay on UACC-62; > 10 µM (inactive) with SF-268. Besides, the GI50 with MOLT-4 is 42.2 µM (inactive).
